Consider nine molecules from patent publication US12264156B2, “Compounds and pharmaceutical compositions thereof for the treatment of diseases” (GALAPAGOS NV, priority 2018, dated 2025).

The assay relates to LPS triggered IL-10 secretion in monocyte-derived macrophages (MdM). Kind of assay: MdM assay: LPS-triggered IL-10 (ELISA). The note with it: LPS 200 ng/mL, supernatant after 2 h, maximal fold change vs LPS only. It is filed as cell-based, human. On the procedure: SIK inhibition inhibits TNFα and increases IL-10 release in LPS triggered monocyte-derived macrophages (MdM) and dendritic […] al. 2012; Sundberg et al. 2014; Ozanne et al. 2015). This assay evaluates illustrative compounds of the invention for their inhibition of LPS-induced TNFα and LPS triggered IL-10 secretion in monocyte-derived macrophages. PBMCs are isolated from human blood samples (buffycoats). The buffy coat is aseptically transferred into a 50 mL Falcon tube, and diluted 1/2 in PBS. Falcon tubes are filled with 20 mL LymphoprepTM, on top of which 25 mL of the buffy coat is carefully added, tubes are centrifuged for 35 min at 400 g in temperature controlled centrifuge, without brake, at 25° C. PBMCs are aspirated from the white interface layer between sample and LymphoprepTM. PBMCs are washed five times in PBS. Cells are resuspended in RPMI 1640 complete medium supplemented with 10% FBS, 1% P/S, and cell density is determined using a hematologic analyzer (Sysmex XS-500i). PBMCs are centrifuged at 300×g for 10 min and resuspended at a density of 1.0*10^7 cells/80 μL Miltenyi buffer (PBS, pH 7.4, 1% FBS, 2 mM EDTA). Starting from this point of the protocol all steps are performed on ice. 20 μL of CD14+ micro-beads are added per 1.0*10^7 cells, the tube is mixed and incubated for 15 min in the fridge at 4° C. Cell suspension volume is adjusted to total volume of 100 mL using Miltenyi buffer, mixed gently and subsequently centrifuged for 10 min at 300×g. Supernantant is discarded and cell pellet is resuspended in 12 mL of Miltenyi buffer. Four LS columns are placed in the MACS Separator (magnet) from Miltenyi Biotec, and are prewet by rinsing with 3 mL of MACS buffer per column. Three mL of cell suspension is added onto the column (max 1*10^8 of labelled cells/column), and columns are subsequently washed 3 times with 3 mL of Miltenyi buffer. The columns are removed from the magnets, and 5 mL of Miltenyi buffer are added to the column to flush out the CD14+ fraction by pushing the plunger into the column. The flushed fractions are collected in a fresh 50 mL Falcon and volume is adjusted to 30 mL using Miltenyi buffer, cells are centrifuged for 10 min at 300×g. The obtained cell pellet is resuspended in 10 mL RPMI w/o FBS, and cell density is determined using a hematologic analyser (Sysmex XS-500i). 100 000 cells are seeded per well of a 96-well plate for differentiation to MdM in RPMI 1640 medium supplemented with 10% FBS, 1% P/S and 100 ng/mL rhM-CSF. On day 5 the medium is refreshed with 100 μL RPMI 1640 medium supplemented with 10% FBS, 1% P/S and 100 ng/mL rhM-CSF. On day 10, MdMs are triggered and compound is added. A compound dilution plate is made in 100% DMSO by 3-fold dilution of 10 mM stock solution. An intermediate dilution plate (10× final concentration) is made by diluting the compound dilution plate 50-fold in RPMI medium. Medium is carefully removed from cell plates using multichannel pipette, and replaced by 80 μL fresh medium. 10 μL of the 10× final concentration compound is added to the cells and incubated for 1 hour at 37° C. before addition of trigger. No trigger conditions/trigger conditions are spiked with equal final DMSO concentrations of 0.2% DMSO. 10 μL of 10×LPS (final conc. 200 ng/mL) solution are added to all wells except for the 'no trigger wells' where 10 μL medium is added. Supernatant is collected after 2 h (IL-10 determination) and after 20 h (TNFα determination) of LPS triggering. […]
(In general: ELISA stands for enzyme-linked immunosorbent assay.)
Take `CN(C)CCOc1ccn2c(-c3cc(OC(F)F)c(C(=O)NC4CC4)c(OC(F)F)c3)cnc2c1` [compound 156, N-cyclopropyl-2,6-bis(difluoromethoxy)-4-[7-[2-(dimethylamino)ethoxy]imidazo[1,2-a]pyridin-3-yl]benzamide]: the “IL-10 FCmax median” value was “++ (>1.5-4.5)”.
Next, `COc1cc(-c2cnc3cc(OCCCN4CCNCC4)ccn23)cc(OC(F)F)c1C(=O)NC1CC1` [compound 278, N-cyclopropyl-2-(difluoromethoxy)-6-methoxy-4-[7-(3-piperazin-1-ylpropoxy)imidazo[1,2-a]pyridin-3-yl]benzamide]: “++ (>1.5-4.5)”; `COc1cc(-c2cnc3cc(OCC4CN(C)C4)ccn23)cc(OC(F)F)c1C(=O)NC1CC1` [Cpd 14, N-cyclopropyl-2-(difluoromethoxy)-6-methoxy-4-[7-[(1-methylazetidin-3-yl)methoxy]imidazo[1,2-a]pyridin-3-yl]benzamide]: “++ (>1.5-4.5)”.
`COc1cc(-c2cnc3cc(OCCN)ccn23)cc(OC(F)F)c1C(=O)NC1CC1` [compound 118, 4-[7-(2-aminoethoxy)imidazo[1,2-a]pyridin-3-yl]-N-cyclopropyl-2-(difluoromethoxy)-6-methoxy-benzamide]: the “IL-10 FCmax median” value is given as “++ (>1.5-4.5)”.
Regarding `COc1cc(-c2cnc3cc(OCC4(C)CN(C)C4)ccn23)cc(OC(F)F)c1C(=O)NC1CC1` [compound 220, N-cyclopropyl-2-(difluoromethoxy)-4-[7-[(1,3-dimethylazetidin-3-yl)methoxy]imidazo[1,2-a]pyridin-3-yl]-6-methoxy-benzamide], the “IL-10 FCmax median” value is reported as “++ (>1.5-4.5)”.
Next, `CNCCOc1ccn2c(-c3cc(OC)c(C(=O)NC4CC4)c(OC(F)F)c3)cnc2c1` [compound 117, N-cyclopropyl-2-(difluoromethoxy)-6-methoxy-4-[7-[2-(methylamino)ethoxy]imidazo[1,2-a]pyridin-3-yl]benzamide]: “++ (>1.5-4.5)”.
As for `COc1cc(-c2cnc3cc(OCC(O)CN4CCOCC4)ccn23)cc(OC(F)F)c1C(=O)NC1CC1` (stereo not drawn) [Cpd 330, N-cyclopropyl-2-(difluoromethoxy)-4-[7-(2-hydroxy-3-morpholino-propoxy)imidazo[1,2-a]pyridin-3-yl]-6-methoxy-benzamide], the entry is “++ (>1.5-4.5)”; as for `COc1cc(-c2cnc3cc(OCc4ccnn4C)ccn23)cc(OC(F)F)c1C(=O)NC1CC1` [compound 44, N-cyclopropyl-2-(difluoromethoxy)-6-methoxy-4-[7-[(2-methylpyrazol-3-yl)methoxy]imidazo[1,2-a]pyridin-3-yl] benzamide], “+ (≤1.5)”; as for `COc1cc(-c2cnc3cc(OC[C@H]4CCCN4C)ccn23)cc(OC(F)F)c1C(=O)NC1CC1` [compound 81, N-cyclopropyl-2-(difluoromethoxy)-6-methoxy-4-[7-[[(2R)-1-methylpyrrolidin-2-yl]methoxy]imidazo[1,2-a]pyridin-3-yl]benzamide], “++ (>1.5-4.5)”.
